Experimental data reported in the METLIN SMRT retention time set (Domingo-Almenara et al. 2019).

Assay: gradient 5% acetonitrile 3 min, to 50% in 2 min, to 85% in 15 min, held 3 min, 100 µL/min
Details: column: Zorbax Extend-C18 2.1 x 50 mm; eluents: water / acetonitrile, 0.1% formic acid
In short: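 Mixtures of ~100 pure standards were chromatographed on a Zorbax Extend-C18 column (2.1 × 50 mm, 1.8 μm) at 100 μL/min using water and acetonitrile, each with 0.1% formic acid. Detection used a quadrupole time-of-flight mass spectrometer in positive and negative ionization mode, and data collection spanned 3 months. Retention time was obtained from adduct peaks picked computationally and each checked manually.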

Row | Compound | RP-LC retention time
1 | O=C(CSc1cc(N2CCCCC2)ncn1)Nc1cccc(C(F)(F)F)c1 | 1020 s
2 | COC(=O)c1ccccc1Nc1c(-c2ccc(Cl)cc2)nc2cnccn12 | 1130 s
3 | COc1ccc(CNC2=NCCNC23CCN(S(=O)(=O)c2cc(C)ccc2C)CC3)cc1 | 754 s
4 | COCCN1C(=O)c2ccccc2C(C(=O)NCCCN2CCCCC2)C1c1cccs1 (stereo unspecified) | 612 s
5 | CCc1nc(OCC(=O)Nc2ccc(Cl)cc2F)c2ccccc2n1 | 899 s
6 | CCC(C)C(NC(=O)c1ccc(F)c(Cl)c1)C(=O)Nc1nc2ccccc2[nH]1 (stereo unspecified) | 817 s
7 | Cc1ccc(-c2nc3cnccn3c2Nc2ccc(C)cc2Br)cc1 | 1140 s
8 | O=C(c1cnc[nH]1)N1CC(F)(F)C[C@H]1c1nc(C2CC2)no1 | 630 s
9 | COc1cccc(NC(=O)C2CCCN(c3ncnc4oc(C)c(C)c34)C2)c1 (stereo unspecified) | 891 s
10 | O=C(c1ccc2c(c1)OCO2)N(CCc1cscn1)Cc1cccnc1 | 602 s
11 | O=C(c1ccccc1Cl)N1CCN(c2nc(CN3CCOCC3)cs2)CC1 | 600 s
12 | COc1ccc(C(=O)Nc2cc(-c3cccnc3)no2)c(OC)c1 | 802 s
13 | COc1ccc(-c2cc(C(=O)N(C)C3CCCCC3)nn2C2CCS(=O)(=O)C2)cc1 (stereo unspecified) | 924 s
14 | Cc1ccccc1CNC1=NCCNC12CCN(S(=O)(=O)c1ccc(Cl)cc1)CC2 | 753 s
15 | CCn1nc(C)c(CCNC(=O)CCCn2c(=O)c3cccn3c3ccc(Br)cc32)c1C | 730 s
16 | Cc1ccc(S(=O)(=O)c2cnc(N3CCc4ccccc4C3)nc2N)cc1C | 1150 s
17 | O=C(CSc1nccc2c1ccn2Cc1ccc(F)cc1)NCc1ccco1 | 1040 s
18 | CCOC(=O)Cn1c(C2CC(=O)N(c3cccc(SC)c3)C2)nc2ccccc21 (stereo unspecified) | 852 s
19 | CCOC(=O)c1c(C)[nH]c(C(=O)N2CCCC(C(=O)NCCc3c[nH]c4ccccc34)C2)c1C (stereo unspecified) | 808 s
20 | O=C(Nc1nc(-c2ccc(-c3ccccc3)cc2)cs1)c1cccnc1 | 1030 s
21 | COc1ccc(S(=O)(=O)Cc2nc(-c3ccc(C)cc3)no2)cc1OC | 960 s
22 | Cc1ccc(-c2cc3c(=O)n(Cc4noc(CN5CCCC(C)C5)n4)ccn3n2)cc1 (stereo unspecified) | 705 s
23 | CCC(=O)Nc1sc2c(c1C(=O)Nc1ccccc1)CCCC2 | 704 s

Row | Compound | RP-LC retention time
24 | Cc1cccc(CNC(=O)C2c3ccccc3CC(=O)N2C)c1 (stereo unspecified) | 748 s
25 | CC(=O)N1CCC(C(=O)N2CCC3(CC2)NCc2ccccc2-n2ccnc23)CC1 | 564 s
26 | O=C(CN1CC=C(c2cnn(-c3ccccc3)c2)CC1)N1CCOCC1 | 604 s
27 | CCC(CN1CCOCC1)NC(=O)c1c2c(cn(-c3ccccc3)c1=O)C(=O)CC(C)(C)C2 (stereo unspecified) | 661 s
28 | Cc1nnc2c(NC(=O)c3cc(F)ccc3F)cccn12 | 705 s
29 | COc1cn(CC(=O)Nc2ccccc2C)c(CSc2nc(C)cs2)cc1=O | 628 s
30 | CCOc1ccc(S(=O)(=O)N2CCC(C(=O)NCc3ccccn3)CC2)cc1 | 658 s
31 | CCN(CC)C(=O)Cn1c(=O)c2cnc(-c3ccc(Cl)cc3)nc2n(CC)c1=O | 740 s
32 | COc1ccc(Cl)cc1NC(=O)N(C)CCc1noc(COc2ccccc2)n1 | 1010 s
33 | CCOC(=O)CNC(=O)N1CCN(Cc2nc3cccnc3n2-c2ccc(C)cc2)CC1 | 611 s
34 | CC(=O)N1CCN(c2nc(-c3ccccc3)c3cc(Br)ccc3n2)CC1 | 1010 s
35 | Cc1cc(C)n(-c2ccnc(N(C)Cc3ccccc3)n2)n1 | 1070 s
36 | CC(C(=O)NCCN1CCCCC1)n1c(=O)c(C(F)(F)F)nc2ccccc21 (stereo unspecified) | 601 s
37 | CCN1C(=O)c2cccnc2Sc2cc(NC(=O)c3ccc(OC)c(F)c3)ccc21 | 836 s
38 | O=C(Nc1cc(-c2cccs2)nn1CCO)C1COc2ccccc2O1 (stereo unspecified) | 784 s
39 | Cn1c(=O)n(C)c2cc(N3CCCCC3)c(NC(=O)NC3CCCC3)cc21 | 654 s
40 | O=C(NCCCN1CCOCC1)c1ccc(-c2cnc(NC3CCCCC3)nc2)cc1 | 655 s
41 | Cc1ccc(C)c(CN2CCCN(c3ncccc3-c3nc(C(C)C)no3)CC2)c1 | 790 s
42 | Cc1noc(C)c1S(=O)(=O)N1CCC(N2CC3(CCCCC3)C2c2ccccc2)CC1 (stereo unspecified) | 790 s
43 | CCNc1cc(N2CCC(CCC(=O)N3CCN(C(C)=O)CC3)CC2)ncn1 | 562 s
44 | CCSc1ccccc1C(=O)NC(C)Cc1ccco1 (stereo unspecified) | 841 s
45 | CN(C)CC/C=C1/c2ccccc2COc2ccccc21 | 760 s
46 | O=C(C1CCN(c2ncnc3c2oc2ccccc23)CC1)N1CCN(C2CCCCC2)CC1 | 590 s

Row | Compound | RP-LC retention time
47 | CCOC(=O)c1cc(S(=O)(=O)N2CCCC2C(=O)NCc2ccc(C)o2)cn1C (stereo unspecified) | 846 s
48 | Cn1cccc1Cc1nnc(SCC(=O)NO)n1Cc1ccccc1 | 621 s
49 | Cc1noc2nc(C)n(CC(=O)NCCc3ccccc3)c(=O)c12 | 752 s
50 | Cc1ccccc1OCC(=O)NCC1CC(=O)N(c2ccccc2)C1 (stereo unspecified) | 741 s
51 | Cc1cc(N2CCN(C(=O)c3c(F)cccc3F)CC2)nc(N2CCOCC2)n1 | 613 s
52 | CC(C)C(=O)N1CCc2ccc([N+](=O)[O-])cc2C1 | 728 s
53 | CCOCCOC(=O)C1=C(C)NC2=C(C(=O)C(C(=O)OC)C(C)C2)C1c1cccc(Cl)c1 (stereo unspecified) | 931 s
54 | O=c1n(Cc2cc(F)cc(F)c2)nc2ccc(S(=O)(=O)N3CCCCC3)cn12 | 960 s
55 | CCOC(=O)CC1(NC(=O)N2CCN(c3nc4ccccc4n3CC)CC2)CCCCC1 | 703 s
56 | Cn1nc(N2CCC(NC(=O)c3nccc4ccccc34)C2)ccc1=O (stereo unspecified) | 695 s
57 | C=CCn1nnnc1NCc1ccc2c(c1)n(C)c(=O)n2C | 609 s
58 | O=C(Cn1ccc2sccc2c1=O)Nc1cc(F)cc(F)c1 | 784 s
59 | O=C(c1cc(-c2ccncc2)n[nH]1)N1CCN(C(=O)C2CCCC2)CC1 | 588 s
60 | Cc1cc(=O)n(CC(=O)Nc2cccc(Cl)c2)c(N2CCCCC2)n1 | 701 s
61 | COC(=O)c1ccc2c(=O)n(-c3cc(OC)cc(OC)c3)c(N3CCCC3)nc2c1 | 920 s
62 | COc1ccc(C(=O)N(Cc2cc(OC)c(OC)c(OC)c2)C2CCS(=O)(=O)C2)cc1Cl (stereo unspecified) | 817 s
63 | Cc1ncc2c(n1)C[C@@H]1CC[C@H]2N1C(=O)c1cccnc1 | 570 s
64 | Nc1cc(C2CCN(C(=O)COc3ccc(F)cc3)CC2)no1 | 656 s
65 | Cc1cc(C(=O)NCCN2CCCCCC2)c2c(=O)n(C)c(=O)n(C)c2n1 | 592 s
66 | COc1ccc(N2CCN(c3nccc(-n4nc(C)cc4C)n3)CC2)cc1 | 956 s
67 | CC(C)(C)c1ccc(C(=O)Nc2nc3ccccc3[nH]2)cc1 | 778 s
68 | CCC(=O)NCC[C@@H]1CCc2ccc3c(c21)CCO3 | 833 s
69 | COc1cccc(-c2noc(N3CCCC3)n2)c1 | 898 s

Row | Compound | RP-LC retention time
70 | CCCCC(=O)N1CCN(c2ncccc2-c2nnc(C(C)C)o2)CC1 | 794 s
71 | CCn1c(=O)n(Cc2ccccn2)c(=O)c2cnc(-c3ccc(OC)cc3)nc21 | 880 s
72 | CC(C)(C)NC(=O)N1CCCC(c2nc(CCOCC3CCOCC3)no2)C1 (stereo unspecified) | 728 s
73 | Cc1cc(-c2c(C)sc(C)c2S(=O)(=O)Nc2ccc(C)c(F)c2)n[nH]1 | 1080 s
74 | CCOc1nc2ccccc2nc1N1CCCC(C(=O)N2CCN(C)CC2)C1 (stereo unspecified) | 646 s
75 | CC(=O)Nc1ccc(-c2nnc3n2CCCC3)cc1 | 563 s
76 | CCn1c(N2CCCC(C(=O)NCC3CCN(Cc4cc(C)ccc4C)CC3)C2)cc(=O)n(C)c1=O (stereo unspecified) | 665 s
77 | O=C(NC1CC1)[C@@H]1C[C@H](Oc2ccccc2)CN1C(=O)CC1CCCC1 | 818 s
78 | CCc1ccc(OCC(=O)Nc2nnc(C3CC(=O)N(c4ccc(F)cc4)C3)o2)cc1 (stereo unspecified) | 849 s
79 | COc1ccc(OC)c(NC(=O)c2cc(C3CC3)[nH]n2)c1 | 775 s
80 | CCc1cccc(NS(=O)(=O)c2cc3n(c2)CCN(CC)C3=O)c1 | 762 s
81 | NC(=O)c1cc(-c2cccc(Cl)c2)n[nH]1 | 679 s
82 | CCOc1ccc(CNC(=O)Cc2nnc(-c3ccccn3)o2)cc1 | 699 s
83 | Cn1c(=O)n(CC(=O)Nc2ccc(F)cc2F)c(=O)c2cnc(-c3ccccc3)nc21 | 1000 s
84 | Cc1cccc(NC(=O)Cn2c(=O)n3nc(CCn4nc(C)cc4C)nc3c3ccccc32)c1 | 775 s
85 | O=C(Nc1cccc(-c2ccc(N3CCOCC3)nn2)c1)Nc1ccc(F)c(Cl)c1 | 770 s
86 | CC(C)NC(=O)C1CCCN(c2nc3ncn(CC(=O)Nc4cccc(C(C)C)c4)c(=O)c3s2)C1 (stereo unspecified) | 791 s
87 | CN(C)C(=O)C1CCc2sc(C(=O)N3CCOCC3)cc2C1 (stereo unspecified) | 614 s
88 | CN(C)C(=O)c1cc2sc(Cl)cc2n1C | 837 s
89 | CC(=O)Nc1ccc(-c2noc(C3CCCN(C(=O)c4ccsc4)C3)n2)cc1 (stereo unspecified) | 766 s
90 | Cc1ccc2c(NCc3ccc4c(c3)OCO4)c(C(=O)OC(C)C)cnc2n1 | 737 s
91 | CSc1cccc(NC(=O)N2CCN(C3=CC4=NC(C)CN4C=N3)CC2)c1 (stereo unspecified) | 638 s
